In PubChem BioAssay (NCI):
Where “and” joins values, the source holds several entries; their conditions need not be identical. Equal entries are not always repeated.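 Protocol summary: plate cells (96-well), add compound at 5 concentrations, incubate 48 h, interpolate endpoints linearly. GI50 = concentration required for 50% inhibition of growth. TGI marks complete inhibition of growth.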

What was measured:
Experiment in all cases: NCI anticancer screen, dose series, 48 h
[1] = tested on: SF-268 CNS
[2] = tested on: SNB-75 CNS
[3] = tested on: HOP-92 NSCLC
[4] = tested on: HT29 colon
[5] = tested on: U251 CNS
[6] = tested on: SNB-19 CNS
[7] = tested on: A498 renal
[8] = tested on: OVCAR-5 ovarian
[9] = tested on: HS 578T breast
[10] = tested on: HCC-2998 colon

| SMILES | GI50 [1] | GI50 [2] | TGI [2] | GI50 [3] | TGI [3] | GI50 [4] | TGI [4] | GI50 [5] | TGI [5] | GI50 [6] | TGI [6] | GI50 [7] | TGI [7] | GI50 [8] | TGI [8] | GI50 [9] | TGI [9] | GI50 [10] | TGI [10] | TGI [1] |
| --- | --- | --- | --- | --- | --- | --- | --- | --- | --- | --- | --- | --- | --- | --- | --- | --- | --- | --- | --- | --- |
| C[C@@H]1COCCN1c1cc(-c2ccnn2C)c2ccnc(-c3ccn[nH]3)c2n1 | 0.238 µM and 0.449 µM | 0.087 µM and 0.219 µM | 0.596 µM and 1.8 µM | 0.0815 µM and 0.175 µM | 0.651 µM and 3.08 µM | 0.237 µM and 0.389 µM | 36.4 µM and > 100 µM | 0.26 µM and 1 µM | 14.6 µM and > 100 µM | 0.23 µM and 0.31 µM | > 100 µM | 0.0212 µM and 0.0373 µM | 0.0838 µM and 0.226 µM | 0.103 µM and 0.193 µM | > 100 µM | 0.0994 µM and 0.291 µM | 0.643 µM and 2.06 µM | 0.0277 µM and 0.0581 µM | 18.6 µM and > 100 µM | – |
| C[C@H]1c2ccccc2CN1CCCOc1cc2c(cc1OCC1CC1)C1(CCCC1)C(N)=N2 | 2.94 µM | 0.994 µM | 4.86 µM | 0.633 µM | 3.54 µM | 1.05 µM | 2.67 µM | 1.31 µM | 4.08 µM | 5.65 µM | 11.8 µM | 1.56 µM | 5.69 µM | 3.6 µM | 10.1 µM | 1.74 µM | 9.44 µM | 0.931 µM | 1.78 µM | 10.3 µM |
| O=C1CCC(N2C(=O)c3cccc(NCCCC4CCN(CCNC(=O)c5cc6c(o5)C(=O)c5ccccc5C6=O)CC4)c3C2=O)C(=O)N1 (centres undefined) | 2.06 µM | 1.53 µM | 2.88 µM | 3.51 µM | 15.1 µM | 0.823 µM | 8.81 µM | 1.14 µM | 2.45 µM | 0.673 µM | 1.97 µM | 1.41 µM | 2.75 µM | 0.653 µM | 2 µM | 1.95 µM | 6.9 µM | 0.695 µM | 1.81 µM | 7.65 µM |
| CN(c1ccc(C#N)c(Cl)c1)C1CCC(NC(=O)c2ccc(N3CCN(C4CN(c5ccc6c(c5)C(=O)N(C5CCC(=O)NC5=O)C6=O)C4)CC3)cc2)CC1 (centres undefined) | > 100 µM | > 100 µM | > 100 µM | 10.2 µM | 99.8 µM | > 100 µM | > 100 µM | 61.2 µM | > 100 µM | > 100 µM | > 100 µM | > 100 µM | > 100 µM | 47.6 µM | > 100 µM | > 100 µM | > 100 µM | > 100 µM | > 100 µM | > 100 µM |
| CCN(CC)C(=S)SSC(=S)N(CC)CC | 22 µM and 18.6 µM | 20.7 µM and 18.2 µM | > 56.7 µM and 57.3 µM | 15 µM and 40.4 µM | 38.4 µM and 133 µM | 16.5 µM and 16.8 µM | 31.5 µM and 35.5 µM | 15.8 µM and 13.7 µM | 31 µM and 30.7 µM | 37.4 µM and 76.4 µM | > 75.6 µM and 219 µM | 49.9 µM and 109 µM | 228 µM | 35.4 µM and 17.9 µM | > 56 µM and 32.6 µM | 20.9 µM and 105 µM | 64 µM and 501 µM | 28.7 µM and 31.3 µM | > 67.9 µM and 124 µM | > 58 µM and 42.6 µM |
| NS(=O)(=O)c1cccc(-c2ccc3c(NC(=O)C4CC4)n[nH]c3c2)c1 | > 21.6 µM | > 13.8 µM | > 25 µM | > 25 µM | > 25 µM | > 14.4 µM | > 25 µM | 12.8 µM | > 25 µM | 20.4 µM | > 25 µM | > 19.8 µM | > 25 µM | > 25 µM | > 25 µM | 9.6 µM | > 25 µM | > 22.1 µM | > 25 µM | > 25 µM |
